The source of these data is patent US8785486B2, “Imidazo[1,2-A]pyridine derivatives and their use as positive allosteric modulators of mGluR2 receptors” (Janssen Pharmaceuticals, Inc., priority 2007, dated 2014).

One series deals with T1, human mGluR2 receptor (Homo sapiens, UniProt Q14416).
T1 construct: expressed in transfected cells; host or cells: CHO cells
The series is described as follows: [35S]GTPγS binding assay (PAM assay) using membranes from cells transfected with the human mGluR2 receptor. The class given is biochemical. As to conditions: membranes of CHO cells with human mGluR2, glutamate at predetermined EC25 concentration, averages of duplicate values of 11-concentration response curves; for EC50: read-out: GTPγS - hR2 PAM pEC50 (converted).

T1 sequence (Q14416 19-872): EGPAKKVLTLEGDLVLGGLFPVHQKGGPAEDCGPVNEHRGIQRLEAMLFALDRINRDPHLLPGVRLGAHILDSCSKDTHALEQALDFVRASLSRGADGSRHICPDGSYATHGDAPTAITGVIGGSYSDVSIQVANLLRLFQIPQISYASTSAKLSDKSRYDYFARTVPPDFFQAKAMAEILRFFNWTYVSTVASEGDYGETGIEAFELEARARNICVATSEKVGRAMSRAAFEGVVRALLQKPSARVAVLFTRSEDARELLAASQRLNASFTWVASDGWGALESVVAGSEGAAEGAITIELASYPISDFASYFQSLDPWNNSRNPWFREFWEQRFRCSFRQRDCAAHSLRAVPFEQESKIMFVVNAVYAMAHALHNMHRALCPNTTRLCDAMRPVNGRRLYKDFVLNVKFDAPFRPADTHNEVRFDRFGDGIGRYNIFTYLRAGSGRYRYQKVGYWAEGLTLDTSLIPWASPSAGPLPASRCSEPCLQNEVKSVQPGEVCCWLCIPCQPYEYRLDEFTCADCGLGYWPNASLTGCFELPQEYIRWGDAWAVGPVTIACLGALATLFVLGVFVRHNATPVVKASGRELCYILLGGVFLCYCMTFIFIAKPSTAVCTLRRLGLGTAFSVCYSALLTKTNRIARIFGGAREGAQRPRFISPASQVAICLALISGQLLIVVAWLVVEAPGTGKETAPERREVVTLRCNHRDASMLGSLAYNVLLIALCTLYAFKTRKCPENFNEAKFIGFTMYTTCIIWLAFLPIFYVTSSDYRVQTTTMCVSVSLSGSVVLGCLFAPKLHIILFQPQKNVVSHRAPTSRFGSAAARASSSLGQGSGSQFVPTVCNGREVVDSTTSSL

The melting point is the temperature of the solid-liquid transition. The compound `C[C@]1(O)CC[C@@H](Nc2ccc(-c3ccn4c(CC(F)(F)F)cnc4c3C#N)cc2Cl)CC1` [Example 89] came in with a melting point of 161.6 °C. The EC50 at human mGluR2 receptor is 275 nM.
Taken in the same sequence, the figures for `N#Cc1c(-c2ccc(N[C@H]3CC[C@H](O)CC3)cc2)ccn2c(CC(F)(F)F)cnc12` [Example 91, 7-[4-(4-hydroxy-cyclohexylamino)-phenyl]-3-(2,2,2-trifluoro-ethyl)-imidazo[1,2-a]pyridine-8-carbonitrile] were 137.5 °C and 1120 nM.
The compound `N#Cc1c(-c2ccc(NC3CCOCC3)c(Cl)c2)ccn2c(CC(F)(F)F)cnc12` [Example 92] had a melting point of 230.7 °C. Moreover, on human mGluR2 receptor, the “GTPγS - hR2 PAM pEC50” value is recorded as 6.15.
Regarding `C[C@]1(O)CC[C@H](Nc2ccc(-c3ccn4c(CC(F)(F)F)cnc4c3C#N)cc2Cl)CC1` [Example 94], the melting point was determined as 202.6 °C. The EC50 at human mGluR2 receptor was 174 nM.
For `N#Cc1c(-c2ccc(N[C@H]3CC[C@H](O)CC3)c(Cl)c2)ccn2c(CC(F)(F)F)cnc12` [Example 96, (trans)-7-[3-Chloro-4-(4-hydroxy-cyclohexylamino)-phenyl]-3-(2,2,2-trifluoro-ethyl)-imidazo[1,2-a]pyridine-8-carbonitrile], in that order: 123.7 °C and 295 nM.
`FC(F)(F)Cc1cnc2c(Cl)c(-c3ccc(NC4CCOCC4)c(Cl)c3)ccn12` [Example 99] showed a melting point of 149.7 °C. Further, the EC50 on human mGluR2 receptor is 631 nM.
`C[C@]1(O)CC[C@H](Nc2ccc(-c3ccn4c(CC(F)(F)F)cnc4c3Cl)cc2Cl)CC1` [Example 100, (trans)-4-{2-Chloro-4-[8-chloro-3-(2,2,2-trifluoro-ethyl)-imidazo[1,2-a]pyridin-7-yl]-phenylamino}-1-methyl-cyclohexanol] returned a melting point of 205.1 °C. Besides, at human mGluR2 receptor, the EC50 was 126 nM.
Taken in the same sequence, the figures for `O[C@H]1CC[C@H](Nc2ccc(-c3ccn4c(CC(F)(F)F)cnc4c3Cl)cc2Cl)CC1` [Example 101, 4-{2-Chloro-4-[8-chloro-3-(2,2,2-trifluoro-ethyl)-imidazo[1,2-a]pyridin-7-yl]phenylamino}-cyclohexanol] were 183.1 °C and 155 nM.
Consider `N#Cc1c(-c2ccc(O[C@H]3CC[C@@H](O)CC3)c(Cl)c2)ccn2c(CC(F)(F)F)cnc12` [Example 103], for which the melting point worked out at 210.2 °C. Moreover, the EC50 at human mGluR2 receptor was 933 nM.
In turn, `CC(C)(O)C1CCN(c2ccc(-c3ccn4c(CC(F)(F)F)cnc4c3C#N)cc2)CC1` [Example 112] came in with a melting point of 174 °C. In addition, the EC50 on human mGluR2 receptor is 676 nM.
As for `N#Cc1c(-c2ccc(COc3cccc(F)c3)cc2)ccn2c(CC(F)(F)F)cnc12` [Example 114], the melting point was 207.1 °C. In addition, at human mGluR2 receptor, the EC50 is 141 nM.
Take `N#Cc1c(N2CCC3(CCc4ccccc4O3)CC2)ccn2c(CC(F)(F)F)cnc12` [Example 115]: the melting point was determined as 198.7 °C. At human mGluR2 receptor, the EC50 is 214 nM.
Regarding `N#Cc1c(N2CCc3c(oc4ccccc34)C2)ccn2c(CC(F)(F)F)cnc12` [Example 116], the melting point worked out at 252.5 °C. On human mGluR2 receptor, the EC50 was 174 nM.
